This note sets out measurements from the OPERA property sets (Mansouri et al. 2018).

Where a SMILES comes first, the peptide text is derived from it. [ ]: non-standard residue; d: D form. ξ: configuration not given here. ξW = NC(Cc1c[nH]c2ccccc12)C(=O)O

Usually logP stands for a log measure of how a compound divides between an organic and an aqueous phase. Lower therefore signals lower lipophilicity.

Turning to `NC1=NCC(CN2CCC(c3ccccc3)CC2)O1` (configuration not stated), the lipophilicity (logP) was found to be 1.96. Under `CCNC(=NC#N)NS(=O)(=O)c1cnccc1NC1CCCCCC1` stands 1.53; under `C[C@@H]1C[C@H]2[C@@H]3CCC4=CC(=O)C=C[C@]4(C)[C@@]3(Cl)[C@@H](O)C[C@]2(C)[C@@]1(OC(=O)c1ccco1)C(=O)CCl`, 3.9.

On to `CCCNCc1ccc(C)cc1`, for which the lipophilicity (logP) was found to be 2.96.

The compound `Nc1ccn([C@H]2CS[C@@H](CO)O2)c(=O)n1` returned a logP of -0.93. For `CC(C)C(=O)OCC1OC(n2cc(I)c(=O)[nH]c2=O)CC1O` (configuration not stated) the value was 0.84.

For the compound `COc1ccccc1N1CCN(c2ccc(Nn3c(C)ccc3C)nn2)CC1`, the logP came out at 3.61. In turn, `CNc1ccc2cc3ccccc3nc2c1CO` showed a logP of 2.1. As for `NC(=S)NN=C(c1ccccc1)c1ccccn1`, the lipophilicity (logP) was 1.92.

With `CCCCN(CCO)CCCC`, the log partition coefficient (logP) stood at 2.65. The compound `CCCC(=NOCC)C1=C(O)CC2(CCCCC2C)OC1=O` (configuration not stated) came in with a logP of 3.9. For `O=C1c2ccccc2-c2nnccc21` the value was 1.22. For `Clc1c2ccccc2cc2ccccc12`, the lipophilicity (logP) worked out at 5.27. The compound `C[C@@H]1N=C(c2ccccc2Cl)c2cc([N+](=O)[O-])ccc2NC1=O` displayed a log partition coefficient (logP) of 2.72.

Turning to `COc1cc2ncnc(Nc3cccc(F)c3)c2cc1OC`, the log partition coefficient (logP) stood at 2.96. For the compound `CCNC(=S)NS(=O)(=O)c1cnccc1NC1CCCCCCC1`, the lipophilicity (logP) stood at 3.86.

On to `O=C(NC1CCCCCCC1)NS(=O)(=O)c1cnccc1NC1CCCCC1`, for which the logP is 4.97. The compound `CCOC(=O)c1cnc2ccc(C)cn2c1=O` gave a lipophilicity (logP) of 0.9. In the case of `CCCC(=NOCC)C1=C(O)CC(C)(C)OC1=O`, the log partition coefficient (logP) came to 2.56. Under `Cc1ccc(CO)c(C=NNC(=O)c2ccco2)c1O` stands 2.67.

Compound `CC(=O)Oc1ccccc1C(=O)OC1Cc2c(O)cc(O)cc2OC1c1ccc(O)c(O)c1` (configuration not stated) displayed a logP of 2.87. `COCCCNC(=O)Cn1cnc([N+](=O)[O-])n1` gave a logP of -0.49. For `O=C1C(NCCO)=C(N2CC2)C(=O)C(NCCO)=C1N1CC1` the value was -1.47.

Consider `C=CCC1C(=O)N(CCN(C)C)c2ccccc2CC1c1ccc(OC)cc1` (configuration not stated), for which the lipophilicity (logP) stood at 5.3. Under `COc1ccc(C2Cc3c(OC)cccc3N(CCN(C)C)C(=O)C2C)cc1` (configuration not stated) stands 4.6. Turning to `CCC(C)C(NC(=O)C(CC(C)C)NC(=O)C(NC(=O)C(N)CCSC)C(C)CC)C(=O)O` (configuration not stated) (H-MILI-OH; configuration not given here), the logP was -0.49.

The compound `Cc1nc2c3c(c(C(=O)N(C)C)cn2c1C(=O)N(C)C)CCC(c1ccccc1)O3` (configuration not stated) came in with a log partition coefficient (logP) of 1.89.

Compound `CCON=C(CC)C1=C(O)CC(c2cccc(Oc3ncc(C(F)(F)F)cc3F)c2)CC1=O` (configuration not stated) registered a logP of 4.63. As for `CC(C)(C)[N+]([O-])=Cc1ccccc1[N+](=O)[O-]`, the logP worked out at 0.8. Turning to `COC(=O)c1[nH]cc(-c2ccccc2C)c1N1CCOCC1`, the lipophilicity (logP) was 2.8. As for `COc1cc(S(C)=O)ccc1-c1cn2cc(N)cnc2n1` (configuration not stated), the log partition coefficient (logP) is 0.37.

In turn, `CCOC(=O)c1cn2c(C)c(C)nc2c2c1CCC(c1ccccc1)O2` (configuration not stated) came in with a logP of 5.5. Under `Clc1cccc(N2CCN(CCn3nnc4ccccc43)CC2)c1` stands 3.45; under `Clc1ccc2oc3c(Cl)c(Cl)cc(Cl)c3c2c1`, 6.13; under `CN(C)C(C)(C)O`, 0.2.

Turning to `CCCNc1nc(CCC)nc(N2CCOCC2)n1`, the logP amounted to 2.7. Under `Cc1nn(-c2cc(CC(Cl)C(=O)O)c(Cl)cc2F)c(=O)n1C(F)F` (configuration not stated) stands 3.36. For the compound `CC(C)OP(=O)(OC(C)C)C(Cl)(Cl)P(=O)(OC(C)C)OC(C)C`, the lipophilicity (logP) came to 2.89. Take `NCC(=O)NC(Cc1c[nH]c2ccccc12)C(N)=O` (configuration not stated) (H-Gly-[ξW]-NH2): the lipophilicity (logP) was -0.48. `C#CCN(N=O)C(=O)NCCCCC(NC(C)=O)C(=O)NCc1ccccc1` (configuration not stated) had a logP of 1.64. Under `CC(C)(C)Nc1nc(N)nc(Cl)n1` stands 1.94. `OCCN1CCN(CCn2nc3ccccc3n2)CC1` had a logP of 0.43.
